The test has as its target IRE1a (Homo sapiens, UniProt O75460). As to the kind of experiment: IRE1a Endoribonuclease Nanoluciferase Assay (XBP1 luciferase reporter in 293T cells). As to conditions: XBP1 nanoluciferase reporter in 293T cells, ER stressor; tested as the salt named. Further details: endogenous in cells; host or cells: 293T. In kind it is cell-based. The method, then: Compounds disclosed herein were assessed for disruption of IRE1 signaling using a IRE1a Endoribonuclease Nanoluciferase Assay. […] About 24 hours later, the cells were transfected with Effectene. In a 15 mL tube, the following was added: 2 ug XBP1 luciferase reporter plasmid (PGK-Luc2-P2A-XBP1u-Nanoluciferase-PEST); 300 ul EC buffer; and 16 ul Enhancer, followed by incubation at room temp for 5 minutes. […] 2.6 mL cDMEM media was added. Old media was aspirated from the cells, followed by addition of 7 mL fresh media. Full transfection mixture was added dropwise to cells. Cells were incubated for 6 hours, followed by trypsinization, centrifugation and resuspension in 11 mL fresh cDMEM media. 100 μL of cells were plated per a well in a 96 well plate. A day later, ER stressors of choice +/− inhibitors were added. To harvest, media was aspirated from cells completely, then 50 uL 1× passive lysis buffer (Promega: E1941) was added per well and put on shaker (300 rpm) for 30 minutes at room temperature. […] 15 uL OneGlo (nanoluciferase kit, Promega N1630) was added. Plates were spun down, placed on shaker (300 rpm) for 10 minutes. Plates were read on luminometer, 1000 ms integration time per well. 15 uL Stop and Glo (nanoluciferase kit) was added. Plates were spun down, placed on shaker (300 rpm) for 10 minutes. Plates were read on luminometer, 1000 ms second integration time per well.

Data on ten compounds can be found in patent publication US12479818B2, “Treatment of fibrosis with IRE1 small molecule inhibitors” (Cornell University, priority 2019, dated 2025).

Sequence of IRE1a (O75460 19-977): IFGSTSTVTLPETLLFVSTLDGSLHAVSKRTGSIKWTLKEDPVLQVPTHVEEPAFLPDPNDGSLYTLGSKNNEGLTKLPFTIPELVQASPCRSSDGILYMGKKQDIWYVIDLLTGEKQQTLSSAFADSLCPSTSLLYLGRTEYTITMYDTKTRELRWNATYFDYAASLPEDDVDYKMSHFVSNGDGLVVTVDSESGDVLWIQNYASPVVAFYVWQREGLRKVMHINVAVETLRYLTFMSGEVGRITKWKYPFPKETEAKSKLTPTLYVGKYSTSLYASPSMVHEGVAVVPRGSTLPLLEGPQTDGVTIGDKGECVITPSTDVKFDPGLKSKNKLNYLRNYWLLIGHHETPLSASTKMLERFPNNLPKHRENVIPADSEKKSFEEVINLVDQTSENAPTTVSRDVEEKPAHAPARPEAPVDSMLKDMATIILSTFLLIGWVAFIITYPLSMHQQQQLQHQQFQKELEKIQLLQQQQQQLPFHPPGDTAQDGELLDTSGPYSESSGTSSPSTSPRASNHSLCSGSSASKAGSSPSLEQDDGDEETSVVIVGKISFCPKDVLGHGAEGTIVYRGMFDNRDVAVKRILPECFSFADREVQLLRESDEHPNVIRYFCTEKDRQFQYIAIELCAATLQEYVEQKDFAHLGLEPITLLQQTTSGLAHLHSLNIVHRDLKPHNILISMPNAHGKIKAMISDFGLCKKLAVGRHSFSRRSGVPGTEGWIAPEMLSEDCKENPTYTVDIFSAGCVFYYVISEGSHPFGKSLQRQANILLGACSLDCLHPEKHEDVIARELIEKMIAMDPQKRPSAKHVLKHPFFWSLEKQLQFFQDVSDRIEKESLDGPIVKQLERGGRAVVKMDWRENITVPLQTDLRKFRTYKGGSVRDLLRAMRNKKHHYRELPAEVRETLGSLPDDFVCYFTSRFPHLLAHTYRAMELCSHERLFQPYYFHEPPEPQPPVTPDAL

Turning to `CCc1nc(NS(=O)(=O)c2ccccc2Cl)ccc1-c1cc(CC)c2nc(N[C@H]3CC[C@H](N(C)C)CC3)ncc2c1` [Compound 117, 2-chloro-N-(5-(2-(((1r,4r)-4-(dimethylamino)cyclohexyl)amino)-8-ethylquinazolin-6-yl)-6-ethylpyridin-2-yl)benzenesulfonamide], the EC50 (usually the concentration at which the effect is half-maximal) was under 5 nM.

For `CCc1cc(-c2ccc(NS(=O)(=O)c3ccccc3C)nc2OC)cc2cnc(NC3CCC(NC)CC3)nc12` (stereo not shown) [Compound 118, N-(5-(8-ethyl-2-(((1r,4r)-4-(methylamino)cyclohexyl)amino)quinazolin-6-yl)-6-methoxypyridin-2-yl)-2-methylbenzenesulfonamide], the EC50 was under 5 nM. For the compound `CCc1cc(-c2ccc(NS(=O)(=O)c3ccccc3C)nc2OC)cc2cnc(N[C@H]3CC[C@H](N(C)C)CC3)nc12` [Compound 119, N-(5-(2-(((1r,4r)-4-(dimethylamino)cyclohexyl)amino)-8-ethylquinazolin-6-yl)-6-methoxypyridin-2-yl)-2-methylbenzenesulfonamide], the EC50 is under 5 nM. Turning to `CCc1cc(-c2ccc(NS(=O)(=O)c3ccccc3Cl)nc2C)cc2cnc(N[C@H]3CC[C@H](NC)CC3)nc12` [Compound 122, 2-chloro-N-(5-(8-ethyl-2-(((1r,4r)-4-(methylamino)cyclohexyl)amino)quinazolin-6-yl)-6-methylpyridin-2-yl)benzenesulfonamide], the EC50 is under 5 nM. For the compound `COc1nc(NS(=O)(=O)c2ccccc2Cl)ccc1-c1cc(C(C)(F)F)c2nc(N[C@H]3CC[C@H](N(C)C)CC3)ncc2c1` [Compound 124, 2-chloro-N-(5-(8-(1,1-difluoroethyl)-2-(((1r,4r)-4-(dimethylamino)cyclohexyl)amino)quinazolin-6-yl)-6-methoxypyridin-2-yl)benzenesulfonamide], the EC50 is under 5 nM. With `CCc1cc(-c2ccc(NS(=O)(=O)c3ccccc3Cl)nc2C)cc2cnc(NC3CCC(N(C)CC)CC3)nc12` (stereo not shown) [Compound 125, 2-chloro-N-(5-(8-ethyl-2-(((1r,4r)-4-(ethyl(methyl)amino)cyclohexyl)amino)quinazolin-6-yl)-6-methylpyridin-2-yl)benzenesulfonamide], the EC50 is under 5 nM. In the case of `CCc1cc(-c2cc(F)c(NS(=O)(=O)c3ccccc3Cl)nc2OC)cc2cnc(NC3CCC(NC)CC3)nc12` (stereo not shown) [Compound 127, 2-chloro-N-(5-(8-ethyl-2-(((1r,4r)-4-(methylamino)cyclohexyl)amino)quinazolin-6-yl)-3-fluoro-6-methoxypyridin-2-yl)benzenesulfonamide], the EC50 was under 5 nM. `CCc1cc(-c2cc(F)c(NS(=O)(=O)c3ccccc3Cl)nc2OC)cc2cnc(N[C@H]3CC[C@H](N(C)C)CC3)nc12` [Compound 128, 2-chloro-N-(5-(2-(((1r,4r)-4-(dimethylamino)cyclohexyl)amino)-8-ethylquinazolin-6-yl)-3-fluoro-6-methoxypyridin-2-yl)benzenesulfonamide]: the EC50 is under 5 nM.

Take `CCc1cc(-c2ccc(NS(=O)(=O)c3ccccc3Cl)nc2C)cc2cnc(N[C@H]3CC[C@H](N(C)CC4CCC4)CC3)nc12` [Compound 130, 2-chloro-N-(5-(2-(((1r,4r)-4-((cyclobutylmethyl)(methyl)amino)cyclohexyl)amino)-8-ethylquinazolin-6-yl)-6-methylpyridin-2-yl)benzenesulfonamide]: the EC50 is under 5 nM. For `Cc1nc(NS(=O)(=O)c2ccccc2Cl)ccc1-c1cc(C(C)(F)F)c2nc(N[C@H]3CC[C@H](N(C)C)CC3)ncc2c1` [Compound 131, 2-chloro-N-(5-(8-(1,1-difluoroethyl)-2-(((1r,4r)-4-(dimethylamino)cyclohexyl)amino)quinazolin-6-yl)-6-methylpyridin-2-yl)benzenesulfonamide], the EC50 is under 5 nM.
